From patent US12568964B2 (priority 2019, dated 2026)
Like-named read-outs stand apart in the source and are kept apart here.

Test system: Xylella fastidiosa
Type: in vivo
Details: 5 treatments; for Phenotypic improvement of infected olive plants after treatment: 5% w/v, sprayed on foliage, trunk and adjacent soil; for State of treated plants at 9 months after the treatment: 5% w/v in bidistilled water, 9 months after treatment

Question: For “5-hydroxy-naphthalen-1,4-dione complexed with copper”, which “Phenotypic improvement of infected olive plants after treatment” value (Example 3.1: three olive trees, 200 mg per plant suspended in bidistilled water, one every 5 days) is on record?
Answer: The value was “Phenotypic improvements of the plant were observed with the birth of new shoots on the branches previously in a state of desiccation and disappearance of the crumpled and yellowish colored leaves”.

Question: And the “State of treated plants at 9 months after the treatment” value (Example 3.1: three olive trees, 200 mg per plant, one every 5 days)?
Answer: The value was “still free of crumpled and yellowish colored leaves and dried branches”.

Question: What does the source list for `O=C1C=CC(=O)c2c(O)cccc21` [5-hydroxy-naphthalene-1,4-dione]?
Answer: Phenotypic improvement of infected olive plants after treatment (Example 3.4: four olive trees, 150 mg per plant suspended in bidistilled water, one every 5 days): Phenotypic improvements of the plant were observed with the birth of new shoots on the branches previously in a state of desiccation and disappearance of the crumpled and yellowish colored leaves; State of treated plants at 9 months after the treatment (Example 3.4: four olive trees, 150 mg per plant): still free of crumpled and yellowish colored leaves and dried branches
